In patent US20240181081A1, “Compositions and Methods for Treatment of Myotonic Dystrophy Type 1 with CRISPR/SACAS9” (Vertex Pharmaceuticals Incorporated, priority 2021, published 2024):

Legend:
[1] = test system: CTG repeat expansion in the 3′ UTR of human DMPK gene; test: DOUBLE-cut screening: CTG repeat excision by loss-of-signal ddPCR in primary DM1 patient myoblasts; format: cell-based; conditions: sgRNA pair RNP, mean of upstream and downstream ddPCR assays; for % of CTG repeat excision efficiency by ddPCR (DNA-PKi): 3 μM Compound 6 for 48 hrs; for % of CTG repeat excision efficiency by ddPCR (Vehicle): DMSO 48 hrs
Description: (§1) RNPs were assembled with recombinant SaCas9 protein (Aldevron) and chemically modified sgRNAs (Synthego) at a ratio of 1:3 (protein:sgRNA). For SINGLE-cut screening, RNP complexes were assembled with 30 pmol of SaCas9 and 90 pmol of sgRNA in P5 Primary Cell Nucleofector Solution (Lonza). After incubation at room temperature for 20 minutes, 10 μL of RNP complex was mixed with two hundred thousand primary myoblasts resuspended in 10 μL of P5 Nucleofector Solution. For DOUBLE-cut screening, RNP complexes were first assembled for individual sgRNAs with 20 pmol of SaCas9 protein and 60 pmol of sgRNAs in 5 μL of P5 Nucleofector Solution. After incubation at room temperature for 20 minutes, the two RNP complexes (one for upstream sgRNA and one for downstream sgRNA) were mixed at 1:1 ratio and then further mixed with two hundred thousand primary myoblasts resuspended in 10 μL of P5 Nucleofector Solution.
(§2) The Nucleofector 96-well Shuttle System (Lonza) was used to deliver the SaCa9/sgRNA RNPs into primary DM1 patient myoblasts using the nucleofection program CM138. Following nucleofection, myoblasts from each well of nucleofection shuttle were split into six wells of the 96-well cell culture plate (Greiner, 655090) coated with matrigel. The first three wells were treated with DMSO for 48 hrs before changing to fresh myoblast growth medium, and the other three wells were treated with 3 μM of DNA-PKi Compound 6 for 48 hrs before changing to fresh myoblast growth medium. 72 hrs post nucleofection, two wells of DMSO-treated myoblasts and two wells of DNA-PKi-treated myoblasts from each nucleofection were harvested for genomic DNA extraction using the Kingfisher Flex purification system (Thermal Fisher), whereas one well of DMSO-treated myoblasts and one well of DNA-PKi-treated myoblasts were stained for RNA foci by FISH staining.
The primers and probes of ddPCR were designed using the online primer design software Primer3Plus (http://www.bioinformatics.nl/cgi-bin/primer3plus/primer3plus.cgi). The two Target primers/probe sets were used to detect CTG repeat excision, and the Reference primers/probe set was used to amplify a region located in Exon 1 of human DMPK gene and it served as a reference control for the Target sets. The 24 μL of ddPCR reaction consisted of 12 μL of Supermix for Probes (no dUTP) (Bio-Rad Laboratories), 1 μL of Reference primers mix (21.6 μM), 1 μL of Reference probe (6 μM), 1 μL of Target primers mix (21.6 μM), 1 μL of Target probe (6 μM), and 8 μL of sample genomic DNA. Droplets were generated using probe oil with the QX200 Droplet Generator (Bio-Rad Laboratories). Droplets were transferred to a 96-well PCR plate, sealed and cycled in a C1000 deep well Thermocycler (Bio-Rad Laboratories) under the following cycling protocol: 1 cycle at 95° C. for 10 min; 40 cycles of 94° C. for 30 sec, and 58° C. for 1 min; 1 cycle at 98° C. for 10 min (for enzyme inactivation). The cycled plate was then transferred and read in the FAM and HEX channels using the Bio-Rad QX200 Droplet Reader (Bio-Rad Laboratories). ddPCR analysis was performed with the Bio-Rad QuantaSoft Pro Software.
Next, DOUBLE-cut screening was performed to assess the efficiency of paired sgRNAs-induced CTG repeat excision and RNA foci reduction. 90 SaCas9 sgRNA pairs formed by one upstream sgRNA and one downstream sgRNA were assembled with recombinant SaCas9 protein into RNP complex and nucleofected into primary DM1 patient myoblasts. Nucleofected myoblasts were treated with either DMSO (vehicle) or 3 μM of Compound 6 (DNA-PKi) for 48 hrs. 72 hrs post nucleofection, myoblasts were subjected to either genomic DNA isolation or RNA foci staining.
One upstream and one downstream loss-of-signal droplet digital PCR (ddPCR) assays were used to determine the efficiency of CTG repeat excision. ddPCR signals would be abolished upon excision of the CTG repeat expansion in these loss-of-signal ddPCR assays. […]

[2] = test system: CUG RNA foci in primary DM1 patient myoblasts; test: DOUBLE-cut screening: FISH staining of RNA foci in primary DM1 patient myoblasts; format: cell-based, human; conditions: sgRNA pair RNP, 72 hrs post nucleofection; for % of CUG foci free nuclei (DNA-PKi): 3 μM Compound 6 for 48 hrs; for % of CUG foci free nuclei (Vehicle): DMSO 48 hrs
Description: as §1, §2
Primary myoblasts were fixed for 15 min with 4% paraformaldehyde (PFA) and washed five times with 1×PBS for 10 min each at room temperature. Before staining, cells were permeabilized with 0.5% triton X-100 in 1×PBS for 5 min at room temperature, and then washed with 30% formamide and 2× saline-sodium citrate (SSC) mixture for 10 min at room temperature. Cells were then stained with 1 ng/μL of Cy3-PNA(CAG) 5 probe (PNA Bio, F5001) diluted in 30% formamide, 2×SSC, 2 μg/mL BSA, 66 μg/mL yeast tRNA, and 2 mM vanadyl complex for 15 min at 80° C. Following probe staining, cells were then washed in 30% formamide and 2×SSC mixture for 30 min at 42° C., then washed in 30% formamide and 2×SSC mixture for 30 min at 37° C., and then washed in 1×SSC solution for 10 min at room temperature, and finally washed in 1×PBS for 10 min at room temperature. Cells were next stained with anti-MBNL1 antibody (Santa Cruz, 3A4) diluted in 1% bovine serum albumin (BSA) for overnight at 4° C., and washed twice with 1×PBS for 10 min each at room temperature. Cells were then incubated with the secondary antibody goat […] Alexa 647 (Thermo Fisher, A32728) diluted in 1% BSA for 1 hr at room temperature, and washed twice with 1×PBS for 10 min each at room temperature. Next, cells were stained with Hoechst solution (Thermo Fisher, H3569) at 0.1 mg/ml for 5 min, and washed once with 1×PBS for 5 min. PBS was aspirated and fresh 100 μl of fresh PBS was added to each well. High-throughput acquisition of images was completed with the ImageXpress Micro Confocal High-Content Imaging System (Molecular Devices). RNA foci quantifications were accomplished with a customized analysis module of the MetaXpress program (Molecular Devices).
Next, DOUBLE-cut screening was performed to assess the efficiency of paired sgRNAs-induced CTG repeat excision and RNA foci reduction. 90 SaCas9 sgRNA pairs formed by one upstream sgRNA and one downstream sgRNA were assembled with recombinant SaCas9 protein into RNP complex and nucleofected into primary DM1 patient myoblasts. […]

| Substance | % of CTG repeat excision efficiency by ddPCR (DNA-PKi) [1] | % of CTG repeat excision efficiency by ddPCR (Vehicle) [1] | % of CUG foci free nuclei (DNA-PKi) [2] | % of CUG foci free nuclei (Vehicle) [2] |
| --- | --- | --- | --- | --- |
| SaU1 + SaD18: SaCas9 sgRNA pair, SEQ ID NOs: 1 and 26 (guide 1 GCCCCGGAGTCGAAGACAGTTC; guide 2 GGGCCTTTTATTCGCGAGGGTC; listed as DNA, chemistry not fully specified) | 47.64% | 19.40% | 69.94% | 29.85% |
| SaU1 + SaD19: SaCas9 sgRNA pair, SEQ ID NOs: 1 and 27 (guide 1 GCCCCGGAGTCGAAGACAGTTC; guide 2 AGGACCCCCACCCCCGACCCTC; listed as DNA, chemistry not fully specified) | 52.62% | 32.74% | 76.49% | 49.44% |
| SaU1 + SaD20: SaCas9 sgRNA pair, SEQ ID NOs: 1 and 28 (guide 1 GCCCCGGAGTCGAAGACAGTTC; guide 2 AGATGGAGGGCCTTTTATTCGC; listed as DNA, chemistry not fully specified) | 61.37% | 39.94% | 83.73% | 69.61% |
| SaU2 + SaD2: SaCas9 sgRNA pair, SEQ ID NOs: 2 and 10 (guide 1 ACTCAGTCTTCCAACGGGGCCC; guide 2 TCGGCCAGGCTGAGGCCCTGAC; listed as DNA, chemistry not fully specified) | 56.39% | 52.26% | 83.29% | 81.76% |
| SaU2 + SaD3: SaCas9 sgRNA pair, SEQ ID NOs: 2 and 11 (guide 1 ACTCAGTCTTCCAACGGGGCCC; guide 2 CAACGATAGGTGGGGGTGCGTG; listed as DNA, chemistry not fully specified) | 56.04% | 36.75% | 80.14% | 55.11% |
| SaU2 + SaD5: SaCas9 sgRNA pair, SEQ ID NOs: 2 and 13 (guide 1 ACTCAGTCTTCCAACGGGGCCC; guide 2 GGGTTTGGCAAAAGCAAATTTC; listed as DNA, chemistry not fully specified) | 59.19% | 38.64% | 83.71% | 75.82% |
| SaU2 + SaD6: SaCas9 sgRNA pair, SEQ ID NOs: 2 and 14 (guide 1 ACTCAGTCTTCCAACGGGGCCC; guide 2 CTTTTGCCAAACCCGCTTTTTC; listed as DNA, chemistry not fully specified) | 45.77% | 24.88% | 65.23% | 31.53% |
| SaU2 + SaD7: SaCas9 sgRNA pair, SEQ ID NOs: 2 and 15 (guide 1 ACTCAGTCTTCCAACGGGGCCC; guide 2 GGGGCGCGGGATCCCCGAAAAA; listed as DNA, chemistry not fully specified) | 52.12% | 29.62% | 76.74% | 49.05% |
| SaU2 + SaD10: SaCas9 sgRNA pair, SEQ ID NOs: 2 and 18 (guide 1 ACTCAGTCTTCCAACGGGGCCC; guide 2 TTGGGGGTCCTGTAGCCTGTCA; listed as DNA, chemistry not fully specified) | 66.52% | 38.02% | 82.97% | 75.56% |
| SaU2 + SaD11: SaCas9 sgRNA pair, SEQ ID NOs: 2 and 19 (guide 1 ACTCAGTCTTCCAACGGGGCCC; guide 2 CAAAACGTGGATTGGGGTTGTT; listed as DNA, chemistry not fully specified) | 52.97% | 26.90% | 73.23% | 48.38% |
| SaU2 + SaD12: SaCas9 sgRNA pair, SEQ ID NOs: 2 and 20 (guide 1 ACTCAGTCTTCCAACGGGGCCC; guide 2 TCAGTGCATCCAAAACGTGGAT; listed as DNA, chemistry not fully specified) | 58.68% | 36.47% | 83.77% | 76.56% |
| SaU2 + SaD13: SaCas9 sgRNA pair, SEQ ID NOs: 2 and 21 (guide 1 ACTCAGTCTTCCAACGGGGCCC; guide 2 CCCAACAACCCCAATCCACGTT; listed as DNA, chemistry not fully specified) | 51.47% | 30.92% | 75.83% | 39.86% |
| SaU2 + SaD15: SaCas9 sgRNA pair, SEQ ID NOs: 2 and 23 (guide 1 ACTCAGTCTTCCAACGGGGCCC; guide 2 GACAATAAATACCGAGGAATGT; listed as DNA, chemistry not fully specified) | 60.64% | 41.70% | 85.85% | 76.57% |
